Results reported in ChEMBL document CHEMBL6087431, “Discovery of a selective and potent inhibitor of c-Jun N-terminal kinase 1 with anti-pulmonary fibrosis effect” (Bioorg Med Chem Lett, 2025).
Active and inactive are the calls of the source. The calls are words filed in the database; no cut-off is given here.

biological target: T1, Mitogen-activated protein kinase 8 (Homo sapiens, UniProt P45983); conditions: dose 10.0 nM
T1 sequence (P45983 whole entry): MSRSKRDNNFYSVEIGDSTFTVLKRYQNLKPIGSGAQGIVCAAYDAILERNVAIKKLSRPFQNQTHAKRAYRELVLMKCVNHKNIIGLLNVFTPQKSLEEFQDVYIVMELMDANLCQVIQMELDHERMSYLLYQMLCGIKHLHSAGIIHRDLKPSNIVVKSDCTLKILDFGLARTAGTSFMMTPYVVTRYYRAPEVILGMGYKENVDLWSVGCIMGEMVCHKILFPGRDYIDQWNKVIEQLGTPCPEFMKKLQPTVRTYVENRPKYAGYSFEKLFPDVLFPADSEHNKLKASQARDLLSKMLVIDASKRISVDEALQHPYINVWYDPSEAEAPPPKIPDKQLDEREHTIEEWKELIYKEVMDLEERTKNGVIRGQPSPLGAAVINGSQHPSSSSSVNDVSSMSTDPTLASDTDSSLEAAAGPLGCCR

inhibition	SMILES
62.1%	NC(=O)c1ccccc1Nc1nc(Nc2ccccc2)ncc1Br

biological target: Mitogen-activated protein kinase 9 (Homo sapiens, UniProt P45984); assay: Inhibition of JNK2 (unknown origin); conditions: not given
Sequence (P45984 whole entry): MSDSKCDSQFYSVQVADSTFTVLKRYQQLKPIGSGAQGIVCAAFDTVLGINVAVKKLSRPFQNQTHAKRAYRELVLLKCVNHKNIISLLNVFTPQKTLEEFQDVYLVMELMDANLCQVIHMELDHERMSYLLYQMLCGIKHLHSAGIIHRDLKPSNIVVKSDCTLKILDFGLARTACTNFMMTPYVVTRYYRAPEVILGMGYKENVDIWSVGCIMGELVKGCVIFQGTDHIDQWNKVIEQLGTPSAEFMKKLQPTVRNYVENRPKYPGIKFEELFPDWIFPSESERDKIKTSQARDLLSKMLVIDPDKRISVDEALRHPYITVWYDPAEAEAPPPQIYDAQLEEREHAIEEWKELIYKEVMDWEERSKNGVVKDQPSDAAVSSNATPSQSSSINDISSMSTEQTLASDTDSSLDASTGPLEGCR

IC50	SMILES
7.4 nM	NC(=O)c1ccccc1Nc1nc(Nc2ccc(C(=O)N3CCC4(CCOC4)CC3)cc2)ncc1Br
12.6 nM	CN1CC2CCC(C1)N2C(=O)c1ccc(Nc2ncc(Br)c(Nc3ccccc3C(N)=O)n2)cc1
9.4 nM	NC(=O)c1ccccc1Nc1nc(Nc2ccccc2)ncc1Br
8.3 nM	NC(=O)c1ccccc1Nc1nc(Nc2ccc(C(=O)N3CC4CC3CO4)cc2)ncc1Br (stereo not drawn)

test system: A549; assay: Anti-fibrotic activity in human A549 cells assessed as reduction in TGFbeta1-induced fibronectin expression at 0.3 uM by Western blot analysis; type: functional, cell-based; conditions: not given

SMILES	Activity
NC(=O)c1ccccc1Nc1nc(Nc2ccc(C(=O)N3CC4CC3CO4)cc2)ncc1Br (stereo not drawn)	Active

biological target: T1, Mitogen-activated protein kinase 8; assay: Inhibition of JNK1 (unknown origin); conditions: not given

IC50	SMILES
1.4 nM	NC(=O)c1ccccc1Nc1nc(Nc2ccc(C(=O)N3CCC4(CCOC4)CC3)cc2)ncc1Br
1.5 nM	CN1CC2CCC(C1)N2C(=O)c1ccc(Nc2ncc(Br)c(Nc3ccccc3C(N)=O)n2)cc1
3 nM	NC(=O)c1ccccc1Nc1nc(Nc2ccccc2)ncc1Br
0.8 nM	NC(=O)c1ccccc1Nc1nc(Nc2ccc(C(=O)N3CC4CC3CO4)cc2)ncc1Br (stereo not drawn)

test system: A549; assay: Anti-fibrotic activity in human A549 cells assessed as reduction in TGFbeta1-induced c-Jun expression at 0.3 uM by Western blot analysis; type: functional, cell-based; conditions: not given

SMILES	Activity
NC(=O)c1ccccc1Nc1nc(Nc2ccc(C(=O)N3CC4CC3CO4)cc2)ncc1Br (stereo not drawn)	Active

biological target: T1, Mitogen-activated protein kinase 8; conditions: dose 2.0 nM

inhibition	SMILES
inactive	NC(=O)c1ccccc1Nc1nc(Nc2ccc(C(=O)N3CCC4(CCCCC4)CC3)cc2)ncc1Br
60.4%	NC(=O)c1ccccc1Nc1nc(Nc2ccc(C(=O)N3CCC4(CCOC4)CC3)cc2)ncc1Br
56.6%	CN1CC2CCC(C1)N2C(=O)c1ccc(Nc2ncc(Br)c(Nc3ccccc3C(N)=O)n2)cc1
33.2%	NC(=O)c1ccccc1Nc1nc(Nc2ccc(C(=O)N3CCC4(CCNCC4)CC3)cc2)ncc1Br
34.4%	NC(=O)c1ccccc1Nc1nc(Nc2ccc(C(=O)N3C4CCC3CNC4)cc2)ncc1Br
47.6%	NC(=O)c1ccccc1Nc1nc(Nc2ccc(C(=O)N3CCC4(CCCO4)CC3)cc2)ncc1Br
46.8%	NC(=O)c1ccccc1Nc1nc(Nc2ccc(C(=O)N3CCC4(CCOCC4)CC3)cc2)ncc1Br
46.3%	NC(=O)c1ccccc1Nc1nc(Nc2ccc(C(=O)N3C4CCC3COC4)cc2)ncc1Br
49.9%	NC(=O)c1ccccc1Nc1nc(Nc2ccc(C(=O)N3CCC4(CCNC4)CC3)cc2)ncc1Br
51.3%	NC(=O)c1ccccc1Nc1nc(Nc2ccc(C(=O)N3C[C@H]4C[C@@H]3CN4)cc2)ncc1Br
15%	NC(=O)c1ccccc1Nc1nc(Nc2ccc(C(=O)N3CCC4(CC3)OCCO4)cc2)ncc1Br
49.3%	CN1C[C@H]2C[C@@H]1CN2C(=O)c1ccc(Nc2ncc(Br)c(Nc3ccccc3C(N)=O)n2)cc1
10.8%	NC(=O)c1ccccc1Nc1nc(Nc2ccc(C(=O)N3CC4CC(C3)O4)cc2)ncc1Br
45.1%	NC(=O)c1ccccc1Nc1nc(Nc2ccc(C(=O)N3CC4CCC(C3)N4)cc2)ncc1Br
inactive	NC(=O)c1ccccc1Nc1nc(Nc2ccc(C(=O)N3CCC4(CCCC4)CC3)cc2)ncc1Br
18.1%	NC(=O)c1ccccc1Nc1nc(Nc2ccccc2)ncc1Br
76.1%	NC(=O)c1ccccc1Nc1nc(Nc2ccc(C(=O)N3CC4CC3CO4)cc2)ncc1Br (stereo not drawn)
